Laboratory results from patent US6376522B1, “4-hydroxyisothiazole compounds” (Ciba Specialty Chemicals Corporation, priority 1999, dated 2002).
Values after ≈ are worked out from the molar mass of the structure shown. Read-outs that look alike come from different tables or passages of the source.

How the values were obtained:
Assay in all cases: Agar incorporation test, MIC
Type in all cases: cell-based
[1] = system: Candida albicans ATCC 10231; settings: ATCC10231, Example 3, according to Example 2, read-out: MIC CA = Candida albicans ATCC 10231
Method: (§1) An agar incorporation test is carried out to determine the MIC (Minimum Inhibitory Concentration [ppm]) of the compound of formula (101): […]
(§2) The test substances are dissolved in Ethanol, and a dilution series of the compound of the formula […] in agar are prepared.
(§3) Anaerobic bacteria and dermatophytes are cultivated on agar-plates, and washes off with Mueller-Hinton bouillon. Aerobic bacteria are cultivated in Mueller-Hinton bouillon overnight. The test germ suspension are diluted with Mueller-Hinton bouillon to a density of McFarland standard 0.5.
(§4) 10 μl of each germ suspension is dropped onto the agar plates containing the test substance, and the plates are then incubated at 36° C. for 2 to 3 days. (Aerobic bacteria are incubated at 36° C. for 48 hours, anaerobic bacteria are incubated at 30° C. for 72 hours). As controls, the bacterial suspensions are applied to agar plates without test substances. In order to exclude the solvent ethanol having an influence on the growth properties, the bacterial suspensions are applied to agar plates containing ethanol, but without test substance.
(§5) After the plates have been incubated, the growth of the bacteria on the test-substance-containing plates is compared with that of the control plates.

[2] = system: Aspergillus niger ATCC 6275; settings: ATCC6275, Example 3, according to Example 2
Method: as §1, §2, §3, §4, §5

[3] = system: Escherichia coli NCTC 8196; settings: NCTC8196, Example 3, according to Example 2, read-out: MIC EC = Escherichia coli NCTC 8196
Method: as §1, §2, §3, §4, §5

[4] = system: Staphylococcus aureus ATCC 6538
Method: as §1, §2, §3, §4, §5

[5] = system: Staphylococcus hominis DSM 20328; settings: DSM20328, Example 3, according to Example 2, read-out: MIC SH = Staphylococcus hominis DSM 20328
Method: as §1, §2, §3, §4, §5

[6] = system: Staphylococcus hominis DSM 20330; settings: DSM20330, Table 1, 36° C., read-out: MIC (Minimum Inhibitory Concentration) Staphylococcus hominis DSM 20330
Method: as §1, §2, §3, §4, §5

[7] = system: Corynebacterium xerosis ATCC 373; settings: ATCC373, Table 1, 36° C., read-out: MIC (Minimum Inhibitory Concentration) Corynebacterium xerosis ATCC 373
Method: as §1, §2, §3, §4, §5

[8] = ATCC6538, Example 3, according to Example 2, read-out: MIC SA = Staphylococcus aureus ATCC 6538

Row | SMILES | MIC [1] [µg/mL] | MIC [2] [µg/mL] | MIC [3] [µg/mL] | MIC [4, 8] [µg/mL] | MIC [5] [µg/mL] | MIC [6] [µg/mL] | MIC ([4]; ATCC6538, read-out: MIC (Minimum Inhibitory Concentration) Staphylococcus aureus ATCC 6538) [µg/mL] | MIC [7] [µg/mL]
1 | O=C(c1ccc(F)cc1)c1snc(-c2ccc(F)cc2)c1O [(108)] | 100 (≈ 315 µM) | – | – | – | – | – | – | –
2 | Cc1snc(-c2ccccc2)c1O [(105)] | 50 (≈ 261 µM) | 10 (≈ 52.3 µM) | 50 (≈ 261 µM) | 50 (≈ 261 µM) | – | – | – | –
3 | CCc1snc(-c2ccccc2)c1O [(106)] | 500 (≈ 2440 µM) | 100 (≈ 487 µM) | 500 (≈ 2440 µM) | 500 (≈ 2440 µM) | 500 (≈ 2440 µM) | – | – | –
4 | Oc1c(-c2ccccc2)nsc1Sc1snc(-c2ccccc2)c1O [(107)] | – | – | – | 5 (≈ 13 µM) | 5 (≈ 13 µM) | – | – | –
5 | Oc1csnc1-c1ccccc1 [(103)] | 250 (≈ 1410 µM) | 100 (≈ 564 µM) | 250 (≈ 1410 µM) | 50 (≈ 282 µM) | – | – | – | –
6 | Oc1csnc1Cc1ccccc1 [(104)] | 500 (≈ 2610 µM) | 500 (≈ 2610 µM) | 250 (≈ 1310 µM) | 50 (≈ 261 µM) | – | – | – | –
7 | Oc1c(-c2ccccc2)nsc1-c1ccccc1 [(102)] | 50 (≈ 197 µM) | 13 (≈ 51.3 µM) | 5 (≈ 19.7 µM) | 10 (≈ 39.5 µM) | 50 (≈ 197 µM) | – | – | –
8 | Oc1c(-c2ccccc2)nsc1-c1ccccc1 [(101), 3,5-diphenyl-4-hydroxyisothiazole] | – | – | – | – | – | 50 (≈ 197 µM) | 5 (≈ 19.7 µM) | 5 (≈ 19.7 µM)
9 | Oc1c(-c2ccc(F)cc2)nsc1Sc1snc(-c2ccc(F)cc2)c1O [(109)] | – | – | – | – | 2 (≈ 4.76 µM) | – | – | –
